Publication PMC3316592, “Functional Analysis of General Odorant Binding Protein 2 from the Meadow Moth, Loxostege sticticalis L. (Lepidoptera: Pyralidae)” (PLoS ONE, 2012)
Where “and” joins values, the source holds several entries; their conditions need not be identical. Identical values can stand only once. Entries after “also recorded” stand apart in the source; their conditions may differ. Like-named read-outs stand apart in the source and are kept apart here.

Assays:
[1] = target: recombinant LstiGOBP2 (Loxostege sticticalis, UniProt C6ZDA6); assay: biochemical; format: binding; details: for binding to LstiGOBP2 (in words): competitive displacement of 1-NPN
Sequence of recombinant LstiGOBP2 (C6ZDA6 entry or part of it): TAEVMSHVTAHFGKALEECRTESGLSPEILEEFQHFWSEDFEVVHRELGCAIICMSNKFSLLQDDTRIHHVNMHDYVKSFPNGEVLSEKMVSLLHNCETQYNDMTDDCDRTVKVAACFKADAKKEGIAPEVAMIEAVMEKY
Method: Fluorescence spectra were recorded in a right angle configuration on a Lengguang 970 CRT spectrofluorimeter (Shanghai Jingmi, China) at room temperature using a 1-cm light path fluorimeter quartz cuvette. Slit widths of 10 nm were selected for both excitation and emission. The spectra data were processed using 970 CRT 2.0l software.
N-phenyl-1-naphthylamine (1-NPN) was dissolved in methanol to yield a 1 mM stock solution. […] 1-NPN was excited at 337 nm and emission spectra were recorded between 350 and 600 nm. Spectra were recorded with high-speed scanning. All ligands used in competition experiments were dissolved in spectrophotometric-grade methanol. Binding data were collected in three independent measurements.
Bound ligand was evaluated from the values of fluorescence intensity assuming that the protein was 100% active, with a stoichiometry of 1∶1 (protein∶ligand) at saturation. The K1-NPN values were estimated using Prism 5 (GraphPad Software, Inc.) by nonlinear regression for a unique site of binding. The curves were linearized using Scatchard plots.

[2] = test system: L. sticticalis antennae; assay: Electroantennogram (EAG) recording; parameters: species or system Loxostege sticticalis; details: for EAG response (in words) / EAG depolarization: 10 mg/ml in hexane; for EAG response (in words): adult antennae; for EAG depolarization: highest EAG responses
Method: Antennae of adult moths were excised at the base and immediately placed on an EAG Micromanipulator MP-15 (Syntech) platform for EAG. Antennae were attached to two electrode holders with non-drying clay (Spectra 360 Electrode Gel). […] Pure chemicals were diluted with hexane to a final concentration of 10 mg/ml. EAG signals were amplified, monitored, and analyzed with EAG-Pro software (Syntech). The preparation was held in a humidified air stream delivered by a Syntech stimulus controller (CS-55 model; Syntech) at 500 ml/min, to which a stimulus pulse of 40 ml/min was added for […]. Signals were recorded for 10 sec, beginning at 2 sec before the onset of the stimulus pulse. An aliquot (10 µl) of each stimulus was loaded onto a filter paper strip. After each sample was tested, hexane was tested as a control. EAG responses of at least three antennae were recorded.

[3] = test system: LstiGOBP1; parameters: method as in earlier work; details: cited from earlier work
[4] = at ligand concentration 20 µM, protein 2 µM, 1-NPN probe, read-out: Int (fluorescence intensity as percent of the initial fluorescence)
[5] = calculated from IC50: Ki = [IC50]/1+[1-NPN]/K1-NPN, read-out: Ki (relative dissociation constant)
[6] = protein 2 µM, 1-NPN probe, ligand titrated to 2–50 µM in methanol, read-out: IC50 (concentration of ligand halving the initial fluorescence intensity)
[7] = read-out: Int (fluorescence intensity as percent of the initial fluorescence)
[8] = IC50 (concentration of ligand halving the initial fluorescence intensity), protein 2 µM, 1-NPN probe, ligand titrated to 2–50 µM in methanol
[9] = Ki (relative dissociation constant), calculated from IC50: Ki = [IC50]/1+[1-NPN]/K1-NPN
[10] = read-out: Int (fluorescence intensity as percent of the initial fluorescence), at ligand concentration 20 µM, protein 2 µM, 1-NPN probe
[11] = at ligand concentration 20 µM, protein 2 µM, 1-NPN probe

Compound: CC(C)=CCCC(C)O (stereo not shown) [6-Methyl-5-hepten-2-ol]
- activity at 20 µM [1, 4]: 63%
- Ki [1, 5]: 16.5 µM
- IC50 [1, 6]: 28 µM

Compound: COC(=O)c1ccccc1O [Methyl salicylate]
- IC50 [1]: > 50 µM
- activity at 20 µM [1, 7]: 83%

Compound: CC(=O)/C=C/C1C(C)=CCCC1(C)C (stereo not drawn) [α-ionone]
- IC50 [1, 8]: 8 µM
- Ki [1, 9]: 4.7 µM
- binding to LstiGOBP2 (in words) [1]: strongest affinities
- activity at 20 µM [1, 10]: 39%
- EAG response (in words) [2]: weak effects; also recorded: failed to elicit a strong electrophysiological response

Compound: C=CC(O)CCCCC (stereo not shown) [1-Octen-3-ol]
- EAG response (in words) [2]: strong responses; also recorded: intensive responses
- binding to LstiGOBP1 (in words) [3]: present an affinity

Compound: CCCCCCCC=O [1-Octanal]
- activity at 20 µM [1, 4]: 52%
- Ki [1, 5]: 14.1 µM
- IC50 [1, 6]: 24 µM
- EAG depolarization [2]: −1.6 mV

Compound: c1ccc(Nc2cccc3ccccc23)cc1 [1-NPN, N-phenyl-1-naphthylamine, reference compound]
- Kd [1]: ~1.44 µM

Compound: CC12CCC(CC1=O)C2(C)C (stereo not shown) [Camphor]
- IC50 [1]: 14 µM
- Ki [1, 5]: 8.2 µM
- activity at 20 µM [1, 7]: 41%

Compound: CCCCCC=O [1-Hexanal]
- IC50 [1]: 12.5 µM
- Ki [1]: 7.3 µM
- binding to LstiGOBP2 (in words) [1]: high affinities
- activity at 20 µM [1, 7]: 36%

Compound: CC/C=C\CCOC(C)=O [Cis-3-hexenyl acetate]
- activity at 20 µM [1, 4]: 57%
- Ki [1, 5]: 17.1 µM
- IC50 [1, 6]: 29 µM

Compound: C=C1CC/C=C(\C)CC[C@@H]2[C@@H]1CC2(C)C [(-)-Trans-caryophyllene]
- IC50 [1]: > 50 µM
- binding to LstiGOBP2 (in words) [1]: very weak binding affinity
- activity at 20 µM [1, 7]: 86%

Compound: O=Cc1ccccc1 [Benzaldehyde]
- IC50 [1, 8]: 19 µM
- Ki [1, 9]: 11.2 µM
- activity at 20 µM [1, 10]: 48%
- EAG response (in words) [2]: weak response

Compound: CC(=O)/C=C/C1=C(C)CCCC1(C)C [β-ionone]
- IC50 [1, 8]: 11 µM
- Ki [1, 9]: 6.5 µM
- binding to LstiGOBP2 (in words) [1]: strongest affinities
- activity at 20 µM [1, 10]: 37%
- EAG response (in words) [2]: weak effects; also recorded: failed to elicit a strong electrophysiological response

Compound: CC(C)=CCC/C(C)=C/CO [Geraniol]
- IC50 [1, 8]: 22 µM
- Ki [1, 9]: 12.9 µM
- activity at 20 µM [1, 10]: 54%

Compound: C=CC(=C)CCC=C(C)C [Myrcene]
- activity at 20 µM [1, 4]: 56%
- Ki [1, 5]: 14.7 µM
- IC50 [1, 6]: 25 µM

Compound: CC(=O)CCC=C(C)C [6-Methyl-5-hepten-2-one]
- IC50 [1, 8]: 28 µM
- Ki [1, 9]: 16.5 µM
- activity at 20 µM [1, 10]: 64%

Compound: O=CCc1ccccc1 [Phenyl acetaldchyde]
- Int (fluorescence intensity as percent of the initial fluorescence) [1, 11]: 50%
- Ki [1, 5]: 11.8 µM
- IC50 [1, 6]: 20 µM

Compound: Iso-octanol
- Int (fluorescence intensity as percent of the initial fluorescence) [1, 11]: 58%
- Ki [1, 5]: 16.5 µM
- IC50 [1, 6]: 28 µM

Compound: CCCCCCC=O [1-Heptanal]
- IC50 [1]: 24 µM
- Ki [1, 5]: 14.1 µM
- activity at 20 µM [1, 7]: 52%

Compound: CC1=CC[C@H](C(C)C)C=C1 [α-Phellandrene]
- binding to LstiGOBP2 (in words) [1]: do not show affinities
- EAG response (in words) [2]: strong responses
- binding to LstiGOBP1 (in words) [3]: do not show affinities

Compound: COC(=O)c1ccccc1C(=O)OC [Dimethyl phthalate]
- IC50 [1, 8]: 20 µM and 36 µM
- Ki [1, 9]: 11.8 µM and 21.2 µM
- Int (fluorescence intensity as percent of the initial fluorescence) ([1]; at ligand concentration 20 µM, protein 2 µM, 1-NPN probe, 20 µM): 64%
- activity at 20 µM [1, 10]: 50%

Compound: CC=CCCCO [4-Hexen-1-ol]
- IC50 [1]: 26 µM
- Ki [1]: 15.3 µM
- activity at 20 µM [1, 4]: 58%

Compound: O=C/C=C/c1ccccc1 [Cinnamaldehyde]
- IC50 [1, 8]: 17 µM
- Ki [1, 9]: 10 µM
- activity at 20 µM [1, 10]: 45%
- EAG response (in words) [2]: weak response

Compound: C=C(C)[C@H]1CC=C(C)CC1 [R-(+)-Limonene]
- binding to LstiGOBP2 (in words) [1]: do not show affinities
- EAG response (in words) [2]: strong responses
- binding to LstiGOBP1 (in words) [3]: do not show affinities

Compound: CC(C)(C)c1ccc(O)c(C(C)(C)C)c1 [2,4-Di-tert-butylphenol]
- IC50 [1]: 20 µM
- Ki [1]: 11.8 µM
- binding to LstiGOBP2 (in words) [1]: high affinity
- activity at 20 µM [1, 7]: 50%
- EAG response (in words) [2]: weak effects; also recorded: weak response

Compound: CCCCCCCO [1-Heptanol]
- IC50 [1]: 10.5 µM
- Ki [1, 5]: 6.2 µM
- activity at 20 µM [1, 7]: 40%
- EAG depolarization [2]: −1.6 mV

Compound: CC/C=C\CCO [Cis-3-hexen-1-ol]
- IC50 [1]: 19 µM
- Ki [1]: 11.2 µM
- binding to LstiGOBP2 (in words) [1]: high binding affinities
- activity at 20 µM [1, 7]: 49%
- EAG response (in words) [2]: high EAG response

Compound: CCCCCCCCC=O [1-Nonanal]
- activity at 20 µM [1, 4]: 66%
- Ki [1, 5]: 22.9 µM
- binding to LstiGOBP2 (in words) [1]: very weak binding affinity
- IC50 [1, 6]: 39 µM

Compound: CC/C=C/CCCCCCCCCCOC(C)=O [Trans-11-tetradecen-1-yl acetate]
- activity at 20 µM [1, 4]: 48%
- Ki [1, 5]: 10.6 µM
- binding to LstiGOBP2 (in words) [1]: bind strongly; also recorded: high binding affinity
- IC50 [1, 6]: 18 µM
- EAG response of the male antennae (in words) ([2]; male antennae, 10 mg/ml): highest among all the volatiles tested
- EAG response difference between males and females ([2]; male vs female antennae): significantly different

Compound: CCC/C=C/C=O [Trans-2-hexenal]
- IC50 [1]: 10.5 µM
- Ki [1]: 6.2 µM
- binding to LstiGOBP2 (in words) [1]: high binding affinities
- EAG response (in words) [2]: high EAG response

Compound: CCC/C=C/COC(C)=O [Trans-2-hexenyl acetate]
- activity at 20 µM [1, 4]: 59%
- Ki [1, 5]: 16.5 µM
- IC50 [1, 6]: 28 µM

Compound: CCC/C=C\CO [Cis-2-hexen-1-ol]
- IC50 [1]: 24 µM
- Ki [1]: 14.1 µM
- activity at 20 µM [1, 4]: 59%

Compound: c1ccc2scnc2c1 [Benzothiazole]
- IC50 [1]: 22 µM
- Ki [1]: 12.9 µM
- activity at 20 µM [1, 7]: 52%

Compound: CCC/C=C/CO [Trans-2-hexen-1-ol]
- EAG response (in words) [2]: intensive responses
- EAG response (in words) ([2]; listed as E-2-hexeno1): strong responses
- binding to LstiGOBP1 (in words) [3]: present an affinity

Compound: CCCCCCO [1-Hexanol]
- IC50 [1]: 11 µM
- Ki [1, 5]: 6.5 µM
- activity at 20 µM [1, 7]: 42%

Compound: C=CC(C)(O)CCC=C(C)C (single isomer, unassigned; (-)) [(-)-Linalool]
- IC50 [1]: 28 µM
- Ki [1]: 16.5 µM
- activity at 20 µM [1, 4]: 53%

Compound: CCCCC=O [1-Pentanal]
- activity at 20 µM [1, 4]: 46%
- Ki [1, 5]: 8.2 µM
- binding to LstiGOBP2 (in words) [1]: high affinities
- IC50 [1, 6]: 14 µM

Compound: C=C1C2CCC(C2)C1(C)C (stereo not shown) [Camphene]
- IC50 [1, 6]: 23 µM
- activity at 20 µM [1, 7]: 54%

Compound: CCCCCCCCCCCCCCC [Pentadecane]
- binding to LstiGOBP1 (in words) [3]: bind
